Test results: US9682976B2, “Protein kinase C inhibitors and uses thereof” (Rigel Pharmaceuticals, Inc., priority 2012, dated 2017)

System: PKC mediated IL-2 production
Test: IL-2 ELISA, human primary T cell, anti CD3+CD28+
Type: cell-based
Details: Homo sapiens, T-cell, 24 h, human primary T cells stimulated with αCD3 and αCD28, 24 hours
Summary of the method: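 Human peripheral blood T cells, pre-expanded with αCD3/αCD28 and IL-2 and then washed free of IL-2, were pre-incubated with compound for 1 h at 37° C. They were then stimulated on plates coated with […] αCD3 and 5 μg/ml αCD28, or with 0.5 ng/ml PMA plus 0.1 uM ionomycin in the counter assay. IL-2 in supernatants was measured by ELISA after 24 h.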

Structure (SMILES) | EC50
CC1(C)C[C@H](Nc2nc(Nc3cccc(-n4nnnc4SC(CN)CO)c3)ncc2F)C[C@@H]2CCCN21 (stereo partly drawn) [Compound 264, 2-(1-(3-(4-((7R,8aS)-octahydro-5,5-dimethylindolizin-7-ylamino)-5-fluoropyrimidin-2-ylamino)phenyl)-1H-tetrazol-5-ylthio)-3-aminopropan-1-ol] | 1000 to 10000 nM
CC1(C)C[C@H](Nc2nc(Nc3cccc(-n4nnn(CCO)c4=O)c3)ncc2F)C[C@@H]2CCCN21 [Compound 267, 1-(3-(4-((7R,8aS)-octahydro-5,5-dimethylindolizin-7-ylamino)-5-fluoropyrimidin-2-ylamino)phenyl)-4-(2-hydroxyethyl)-1H-tetrazol-5(4H)-one] | 100 to 500 nM
CC1(C)Oc2ccc(Nc3ncc(F)c(N[C@@H]4C[C@@H]5CCCN5C(C)(C)C4)n3)cc2-n2c1nn(CCO)c2=O [Compound 268, 5-fluoro-N2-(1H-2,4-dihydron-2-(2-hydroxyethyl)-4,4-dimethyl-[1,2,4]triazolo[3,4-c][1,4]benzoxazin-1-one-8-yl)-N4-((7R,8aS)-octahydro-5,5-dimethylindolizin-7-yl)pyrimidine-2,4-diamine] | 1000 to 10000 nM
CC1(C)C[C@H](Nc2nc(Nc3cccc(-n4nnnc4S(C)(=O)=O)c3)ncc2F)C[C@@H]2CCCN21 [Compound 269, 5-fluoro-N4-((7R,8aS)-octahydro-5,5-dimethylindolizin-7-yl)-N2-(3-(5-(methylsulfonyl)-1H-tetrazol-1-yl)phenyl)pyrimidine-2,4-diamine] | 500 to 1000 nM
C[S+]([O-])c1nnnn1-c1cccc(Nc2ncc(F)c(N[C@@H]3C[C@@H]4CCCN4C(C)(C)C3)n2)c1 (stereo partly drawn) [Compound 270, 5-fluoro-N4-((7R,8aS)-octahydro-5,5-dimethylindolizin-7-yl)-N2-(3-(5-(methylsulfinyl)-1H-tetrazol-1-yl)phenyl)pyrimidine-2,4-diamine] | 500 to 1000 nM
Cc1ccc(Nc2ncc(F)c(N[C@@H]3C[C@@H]4CCCN4C(C)(C)C3)n2)cc1-n1nn[nH]c1=O [Compound 272, 1-(5-(4-((7R,8aS)-octahydro-5,5-dimethylindolizin-7-ylamino)-5-fluoropyrimidin-2-ylamino)-2-methylphenyl)-1H-tetrazol-5(4H)-one] | > 10000 nM
Cc1ccc(Nc2ncc(F)c(N[C@@H]3C[C@@H]4CCCN4C(C)(C)C3)n2)cc1-n1nnn(CCO)c1=O [Compound 275, 1-(5-(4-((7R,8aS)-octahydro-5,5-dimethylindolizin-7-ylamino)-5-fluoropyrimidin-2-ylamino)-2-methylphenyl)-4-(2-hydroxyethyl)-1H-tetrazol-5(4H)-one] | 100 to 500 nM
COc1ccc(Nc2ncc(F)c(N[C@@H]3C[C@@H]4CCCN4C(C)(C)C3)n2)cc1-n1nn[nH]c1=O [Compound 277, 1-(5-(4-((7R,8aS)-octahydro-5,5-dimethylindolizin-7-ylamino)-5-fluoropyrimidin-2-ylamino)-2-methoxyphenyl)-1H-tetrazol-5(4H)-one] | > 10000 nM
COc1ccc(Nc2ncc(F)c(N[C@@H]3C[C@@H]4CCCN4C(C)(C)C3)n2)cc1-n1nnn(CCO)c1=O [Compound 280, 1-(5-(4-((7R,8aS)-octahydro-5,5-dimethylindolizin-7-ylamino)-5-fluoropyrimidin-2-ylamino)-2-methoxyphenyl)-4-(2-hydroxyethyl)-1H-tetrazol-5(4H)-one] | 500 to 1000 nM
Cn1nc2n(c1=O)-c1cc(Nc3ncc(F)c(N[C@@H]4C[C@@H]5CCCN5C(C)(C)C4)n3)ccc1OC21CCOCC1 [Compound 283, 5-fluoro-N2-(1H-2,4-dihydron-spiro(2H-1,4-benzoxazine-4,4′-[4H]pyran)-2-methyl-[1,2,4]triazolo[3,4-c][1,4]benzoxazin-1-one-8-yl)-N4-((7R,8aS)-octahydro-5,5-dimethylindolizin-7-yl)pyrimidine-2,4-diamine] | 100 to 500 nM
COc1ccc(Nc2ncc(F)c(N[C@@H]3C[C@@H]4CCCN4C(C)(C)C3)n2)cc1-n1nnn(C2COC2)c1=O [Compound 285, 1-(5-(4-((7R,8aS)-octahydro-5,5-dimethylindolizin-7-ylamino)-5-fluoropyrimidin-2-ylamino)-2-methoxyphenyl)-4-(oxetan-3-yl)-1H-tetrazol-5(4H)-one] | 100 to 500 nM
Cc1ccc(Nc2ncc(F)c(N[C@@H]3C[C@@H]4CCCN4C(C)(C)C3)n2)cc1-n1nnnc1S(C)(=O)=O [Compound 286, 5-fluoro-N4-((7R,8aS)-octahydro-5,5-dimethylindolizin-7-yl)-N2-(4-methyl-3-(5-(methylsulfonyl)-1H-tetrazol-1-yl)phenyl)pyrimidine-2,4-diamine] | > 10000 nM
Cn1nc2n(c1=O)-c1cc(Nc3ncc(F)c(N[C@@H]4C[C@@H]5CCCN5C(C)(C)C4)n3)ccc1OC2(CO)CO [Compound 288, 5-fluoro-N2-(1H-2,4-dihydron-4,4-di(hydroxymethyl)-2-methyl-[1,2,4]triazolo[3,4-c][1,4]benzoxazin-1-one-8-yl)-N4-((7R,8aS)-octahydro-5,5-dimethylindolizin-7-yl)pyrimidine-2,4-diamine] | 1000 to 10000 nM
COc1ccc(Nc2ncc(F)c(N[C@@H]3C[C@@H]4CCCN4C(C)(C)C3)n2)cc1-n1nnn(CC(C)(C)O)c1=O [Compound 290, 1-(5-(4-((7R,8aS)-octahydro-5,5-dimethylindolizin-7-ylamino)-5-fluoropyrimidin-2-ylamino)-2-methoxyphenyl)-4-(2-hydroxy-2-methylpropyl)-1H-tetrazol-5(4H)-one] | 100 to 500 nM

Next, values leading:

EC50 | Structure (SMILES)
100 to 500 nM | CC1(C)C[C@H](Nc2nc(Nc3cccc(-n4nnnc4SC(CO)CO)c3)ncc2F)C[C@@H]2CCCN21 [Compound 263, 2-(1-(3-(4-((7R,8aS)-octahydro-5,5-dimethylindolizin-7-ylamino)-5-fluoropyrimidin-2-ylamino)phenyl)-1H-tetrazol-5-ylthio)propane-1,3-diol]
100 to 500 nM | CC1(C)C[C@H](Nc2nc(Nc3cccc(-n4nnn(C5COC5)c4=O)c3)ncc2F)C[C@@H]2CCCN21 [Compound 265, 1-(3-(4-((7R,8aS)-octahydro-5,5-dimethylindolizin-7-ylamino)-5-fluoropyrimidin-2-ylamino)phenyl)-4-(oxetan-3-yl)-1H-tetrazol-5(4H)-one]
< 100 nM | CC1(C)C[C@H](Nc2nc(Nc3cccc(-n4nnnc4SCCO)c3)ncc2F)C[C@@H]2CCCN21 [Compound 266, 2-(1-(3-(4-((7R,8aS)-octahydro-5,5-dimethylindolizin-7-ylamino)-5-fluoropyrimidin-2-ylamino)phenyl)-1H-tetrazol-5-ylthio)ethanol]
< 100 nM | Cc1ccc(Nc2ncc(F)c(N[C@@H]3C[C@@H]4CCCN4C(C)(C)C3)n2)cc1-n1nnn(C)c1=O [Compound 273, 1-(5-(4-((7R,8aS)-octahydro-5,5-dimethylindolizin-7-ylamino)-5-fluoropyrimidin-2-ylamino)-2-methylphenyl)-4-methyl-1H-tetrazol-5(4H)-one]
< 100 nM | Cc1ccc(Nc2ncc(F)c(N[C@@H]3C[C@@H]4CCCN4C(C)(C)C3)n2)cc1-n1nnn(C2COC2)c1=O [Compound 276, 1-(5-(4-((7R,8aS)-octahydro-5,5-dimethylindolizin-7-ylamino)-5-fluoropyrimidin-2-ylamino)-2-methylphenyl)-4-(oxetan-3-yl)-1H-tetrazol-5(4H)-one]
< 100 nM | COc1ccc(Nc2ncc(F)c(N[C@@H]3C[C@@H]4CCCN4C(C)(C)C3)n2)cc1-n1nnn(C)c1=O [Compound 278, 1-(5-(4-((7R,8aS)-octahydro-5,5-dimethylindolizin-7-ylamino)-5-fluoropyrimidin-2-ylamino)-2-methoxyphenyl)-4-methyl-1H-tetrazol-5(4H)-one]
< 100 nM | CSc1nnnn1-c1cc(Nc2ncc(F)c(N[C@@H]3C[C@@H]4CCCN4C(C)(C)C3)n2)ccc1C [Compound 281, 5-fluoro-N4-((7R,8aS)-octahydro-5,5-dimethylindolizin-7-yl)-N2-(4-methyl-3-(5-(methylthio)-1H-tetrazol-1-yl)phenyl)pyrimidine-2,4-diamine]
< 100 nM | Cc1ccc(Nc2ncc(F)c(N[C@@H]3C[C@@H]4CCCN4C(C)(C)C3)n2)cc1-n1nnnc1SCCO [Compound 282, 2-(1-(5-(4-((7R,8aS)-octahydro-5,5-dimethylindolizin-7-ylamino)-5-fluoropyrimidin-2-ylamino)-2-methylphenyl)-1H-tetrazol-5-ylthio)ethanol]
< 100 nM | COc1ccc(Nc2ncc(F)c(N[C@@H]3C[C@@H]4CCCN4C(C)(C)C3)n2)cc1-n1nnnc1OC1COC1 [Compound 284, 5-fluoro-N4-((7R,8aS)-octahydro-5,5-dimethylindolizin-7-yl)-N2-(4-methoxy-3-(5-(oxetan-3-yloxy)-1H-tetrazol-1-yl)phenyl)pyrimidine-2,4-diamine]
< 100 nM | Cc1ccc(Nc2ncc(F)c(N[C@@H]3C[C@@H]4CCCN4C(C)(C)C3)n2)cc1-n1nnn(CC(C)(C)O)c1=O [Compound 289, 1-(5-(4-((7R,8aS)-octahydro-5,5-dimethylindolizin-7-ylamino)-5-fluoropyrimidin-2-ylamino)-2-methylphenyl)-4-(2-hydroxy-2-methylpropyl)-1H-tetrazol-5(4H)-one]

Same assay, conditions: T-cell, human primary T cells stimulated with αCD3 and αCD28, 24 hours

Structure (SMILES) | EC50
Cn1nc2n(c1=O)-c1cc(Nc3ncc(F)c(N[C@@H]4C[C@@H]5CCCN5C(C)(C)C4)n3)ccc1OC2(CO)CO[Si](C)(C)C(C)(C)C (stereo partly drawn) [Compound 287, 5-fluoro-N2-(1H-2,4-dihydron-4-(hydroxymethyl)-4-(((1,1-dimethylethyl)dimethylsilyl)oxymethyl)-2-methyl-[1,2,4]triazolo[3,4-c][1,4]benzoxazin-1-one-8-yl)-N4-((7R,8aS)-octahydro-5,5-dimethylindolizin-7-yl)pyrimidine-2,4-diamine] | 1000 to 10000 nM
